The values that follow come from patent US10899754B2, “Modulators of indoleamine 2,3-dioxygenase” (GLAXOSMITHKLINE INTELLECTUAL PROPERTY DEVELOPMENT LIMITED, priority 2016, dated 2021).

Holding throughout (format): cell-based
In data set [1] the test system is human epithelial HeLa cells. The data set can be described thus: HeLa cytotoxicity assay (CellTiter-Glo). Particulars: pCC50. The method in brief: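 Read-out is CellTiter-Glo luminescence after 2 days at 37 °C, on IFN-γ-stimulated (10 nM) HeLa cells seeded at 5,000/well with compounds in 11-point 3-fold dose series. pCC50 from four-parameter curve fit; wells without cells set 100% cytotoxicity, stimulated cells with DMSO set 0%.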

The target of data set [2] is T1, indoleamine 2, 3-dioxygenase (IDO1) (Homo sapiens, UniProt P14902). The data set can be described thus: IDO1 HeLa RapidFire MS assay (kynurenine detection by mass spectrometry). The arrangement: to induce the expression of indoleamine 2, 3-dioxygenase (IDO1). Particulars: HeLa cells, pIC50, read-out: IDO1_HELA_PXC50 (converted). Put shortly: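 Compound potency reported as pIC50 from kynurenine/internal-standard ratio (RapidFire MS) in supernatant of IFN-γ-induced (10 nM) HeLa cells, 5,000 per well, after 2 days' treatment with 11-point dilutions. Cytotoxicity in the same format by luminescent ATP detection, reported as pCC50.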

Data set [3] concerns human peripheral blood mononuclear cells (PBMC). Nature of the data set: PBMC cytotoxicity assay (CellTiter-Glo). The conditions noted are these: 2 days, pCC50. The method in brief:
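% cytotoxicity was taken from CellTiter-Glo luminescence, using wells without cells and stimulated DMSO wells as references, and fitted by four-parameter curve to give XC50. Cells were human PBMC at 50,000 per well, activated with 100 ng/ml IFN-γ plus 50 ng/ml LPS. Incubation with 11-point, 3-fold dilution series ran for 2 days at 37 °C.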

The target in data set [4] is T1, indoleamine 2, 3-dioxygenase (IDO1). The data set can be described thus: IDO1 PBMC RapidFire MS assay (kynurenine detection by mass spectrometry). The arrangement: to induce the expression of indoleamine 2, 3-dioxygenase (IDO1); host or cells: human PBMC stimulated with IFN-gamma and LPS. The conditions noted are these: human PBMC stimulated with IFN-γ and LPS, 2 days, pIC50, read-out: PBMC PXC50 (converted). Put shortly: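 Kynurenine output, read by RapidFire mass spectrometry as ratio to an internal standard, was measured after 2-day compound exposure (11-point, 3-fold dilutions) of human PBMCs induced with 100 ng/ml IFN-γ and 50 ng/ml LPS. Cell viability tracked alongside via ATP luminescence; XC50 from curve fitting.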

Structures are written as SMILES.

T1 sequence (P14902 whole entry): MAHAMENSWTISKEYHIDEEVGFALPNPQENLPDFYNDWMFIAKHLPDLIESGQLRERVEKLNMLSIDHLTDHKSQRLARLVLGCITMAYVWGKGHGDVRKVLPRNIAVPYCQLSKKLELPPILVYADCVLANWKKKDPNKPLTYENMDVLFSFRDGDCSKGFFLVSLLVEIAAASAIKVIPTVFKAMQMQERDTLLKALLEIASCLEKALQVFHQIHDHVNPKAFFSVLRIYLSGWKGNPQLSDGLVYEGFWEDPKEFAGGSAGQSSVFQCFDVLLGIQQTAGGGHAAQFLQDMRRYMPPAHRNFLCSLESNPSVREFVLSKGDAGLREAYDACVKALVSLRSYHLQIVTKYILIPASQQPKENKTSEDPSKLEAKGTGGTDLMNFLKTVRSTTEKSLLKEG

Regarding `CC(C)CN(c1ccc([C@H](C)CC(=O)O)cc1Nc1nnc(C2CC2)[nH]1)C1CCOCC1` [example 210, (3R)-3-{3-[(5-cyclopropyl-4H-1,2,4-triazol-3-yl)amino]-4-[(2-methylpropyl)(oxan-4-yl)amino]phenyl}butanoic acid], the HELA_IDO1_TOX_PXC50 in data set [1] was less than 5. Moreover, the results for the IC50 in data set [2] and in data set [4] were 50.1 nM and 39.8 nM, respectively. Further, in data set [3], the “PBMC TOX PXC50” value is on record as less than 5.
In data set [1], `CC(C)CN(c1ccc(-c2cccnc2C(=O)O)cc1Nc1nc(C(F)(F)F)ns1)C1CCOCC1` [example 269, 3-{4-[(2-methylpropyl)(oxan-4-yl)amino]-3-{[3-(trifluoromethyl)-1,2,4-thiadiazol-5-yl]amino}phenyl}pyridine-2-carboxylic acid] yielded an HELA_IDO1_TOX_PXC50 of less than 5. Besides, the values for the IC50 in data set [2] and in data set [4] were 316 nM and 31.6 nM, respectively. Also, in data set [3], the “PBMC TOX PXC50” value is less than 5.
For `CC(C)CN(c1ccc([C@@H](C)CC(=O)O)cc1Nc1ccnc(Cl)n1)C1CCCCC1` [example 300], in data set [1], the HELA_IDO1_TOX_PXC50 was less than 5. The IC50 in data set [2] was 3.98 nM; in data set [4] it was 2.51 nM. Besides, in data set [3], the “PBMC TOX PXC50” value was less than 5.
For the compound `CC(C)CN(c1ccc(C(C)OCC(=O)O)cc1Nc1ccc(C#N)cn1)C1CCCCC1` (stereo not shown) [Example 113, 2-(1-(3-((5-cyanopyridin-2-yl)amino)-4-(cyclohexyl(isobutyl)amino)phenyl)ethoxy)acetic Acid], the HELA_IDO1_TOX_PXC50 in data set [1] is given as less than 5. Moreover, the results for the IC50 in data set [2] and in data set [4] were 10 nM and 5.01 nM, respectively. Further, the “PBMC TOX PXC50” value in data set [3] is less than 5.
As for `CC[C@@H](CC(=O)O)c1ccc(N(CC(C)C)C2CCCCC2)c(Nc2nc(Cl)ns2)c1` [example 166, (3S)-3-{3-[(3-chloro-1,2,4-thiadiazol-5-yl)amino]-4-[cyclohexyl(2-methylpropyl)amino]phenyl}pentanoic acid], the HELA_IDO1_TOX_PXC50 in data set [1] is on record as less than 5. The IC50 was 10 nM in data set [2] and 0.316 nM in data set [4]. Further, the “PBMC TOX PXC50” value in data set [3] was found to be 5.1.
`CC(C)CN(c1ccc([C@H](C)CC(=O)O)cc1Nc1ccc(C#N)cn1)C1CCCCC1` [Example 73, (R)-3-(3-((5-cyanopyridin-2-yl)amino)-4-(cyclohexyl(isobutyl)amino)phenyl)butanoic Acid]: the HELA_IDO1_TOX_PXC50 in data set [1] is recorded as less than 5. Moreover, the IC50 in data set [2] is 3.98 nM; in data set [4], 0.794 nM. The “PBMC TOX PXC50” value in data set [3] was less than 5.
The compound `CC(C)CN(c1ccc(C(C)CC(=O)O)cc1NCc1ccc(F)c(F)c1)C1CCCCC1` (stereo not shown) [example 162, 3-{4-[cyclohexyl(2-methylpropyl)amino]-3-{[(3,4-difluorophenyl)methyl]amino}phenyl}butanoic acid] had an HELA_IDO1_TOX_PXC50 in data set [1] of less than 5. For the same compound, the figures for the IC50 in data set [2] and in data set [4] were 1000 nM and 398 nM, respectively. The “PBMC TOX PXC50” value in data set [3] was less than 5.
In data set [1], `CC[C@H](CC(=O)O)c1ccc(N(CC(C)C)CC(C)C)c(Nc2nc(Cl)ns2)c1` [Example 40, (R)-3-(3-((3-chloro-1,2,4-thiadiazol-5-yl)amino)-4-(diisobutylmino)phenyl)pentanoic Acid] gave an HELA_IDO1_TOX_PXC50 of less than 5. Besides, the values for the IC50 in data set [2] and in data set [4] were 12.6 nM and 2.51 nM, respectively. For the same compound, in data set [3], the “PBMC TOX PXC50” value is listed as less than 5.
In the case of `COCCc1nnc(Nc2cc([C@H](C)CC(=O)O)ccc2N(CC(C)C)CC(C)C)[nH]1` [example 203, (3R)-3-{4-[bis(2-methylpropyl)amino]-3-{[5-(2-methoxyethyl)-4H-1,2,4-triazol-3-yl]amino}phenyl}butanoic acid], the HELA_IDO1_TOX_PXC50 in data set [1] is recorded as less than 5. The IC50 in data set [2] is 63.1 nM; in data set [4] it was 31.6 nM. Besides, the “PBMC TOX PXC50” value in data set [3] is less than 5.
As to `CC(C)CN(c1ccc(-c2cccnc2C(=O)O)cc1Nc1nc2ccccc2o1)C1CCCCC1` [example 290, 3-{3-[(1,3-benzoxazol-2-yl)amino]-4-[cyclohexyl(2-methylpropyl)amino]phenyl}pyridine-2-carboxylic acid], the HELA_IDO1_TOX_PXC50 in data set [1] is recorded as less than 5. Moreover, the figures for the IC50 in data set [2] and in data set [4] were 126 nM and 50.1 nM, respectively. Besides, in data set [3], the “PBMC TOX PXC50” value is listed as less than 5.
